According to article PMC8870583, “EGCG Promotes FUS Condensate Formation in a Methylation-Dependent Manner” (Cells, 2022):

T1: FUS^RGG3PY (Homo sapiens, UniProt P35637)
T1 construct: RGG3-PY region, residues 454-526, unmethylated; His6-protein A tag cut by TEV; E. coli BL21(DE3) Star
T1 sequence (P35637 454-526): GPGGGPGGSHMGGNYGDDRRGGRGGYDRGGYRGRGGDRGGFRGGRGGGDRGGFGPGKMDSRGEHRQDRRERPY


How the values were obtained:
FUS^RGG3PY = biological target: T1, FUS^RGG3PY; assay: 1H-15N HSQC NMR titration (CSP); type: binding; settings: no RNA; EGCG 10-500 µM; 30 µM protein; pH 6.0, 150 mM NaCl, 25 °C; several sites, non-specific
FUS RGG3PY = FUS RGG3PY (UniProt P35637 454-526); assay: NMR 1H-15N HSQC titration; 30 uM protein, 0-7.5 uM RNA; unmethylated; CSPs lower than methylated at 4:1, line broadening; 50 mM sodium succinate pH 6.0, 150 mM NaCl, 2 mM TCEP, 0.04% NaN3, 10% D2O, 25 C; settings: protein: recombinant; tags: His6-protein A tag removed by TEV

Row | Molecule | 1H-15N HSQC NMR titration (CSP) (FUS^RGG3PY) | binding result (FUS RGG3PY)
1 | O=C(O[C@@H]1Cc2c(O)cc(O)cc2O[C@@H]1c1cc(O)c(O)c(O)c1)c1cc(O)c(O)c(O)c1 [EGCG] | EGCG can directly interact with the RGG3-PY region of FUS | –
2 | UGUGUGUGUGUGUGUGUGUGUGUG (ssRNA) [(UG)12 RNA] | – | binds
